Three compounds from patent US20040116420A1 (priority 2001, published 2004) can be followed below.

In general, EC90 refers to the concentration needed for an effect of 90%. A low value points to an effect from little substance. The term IC50 denotes the midpoint of a concentration-inhibition curve. By half-life is commonly meant how long it takes for the measured level to halve.

One data set concerns HSV-1. Briefly: Antiviral activity, HSV-1 in Vero cells, plaque method. The format is cell-based. The following applies: Human alphaherpesvirus 1, 20 hours, 90% inhibition of plaque formation. The gist of the method: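 This is a virus-yield read-out. The culture medium was frozen at −80° C and thawed, and the plaques it formed were counted. It came from Vero monolayers infected with 50,000 pfu HSV-1 and then exposed to the compound for 20 h at 37° C. EC90 is the concentration inhibiting 90% of plaque formation relative to the untreated infected control.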

The subject of a further data set is Vero cells. As to the kind of experiment: Cytotoxicity, Vero cells, Alamar Blue. Type of data set: cell-based. The conditions noted are these: 25 μM, 20 hours. The gist of the method:
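Living-cell ratio versus untreated control was read by Alamar Blue absorbance after about 6 h of dye incubation. Before that, Vero cells had received 25 μM test compound in 2% FBS-DMEM for 20 hours at 37 °C under 5% CO2.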

For a further data set, the system named is VZV. Briefly: Antiviral activity 2, plaque formation in HEL cells. Type of data set: cell-based. The following applies: Human alphaherpesvirus 3, 72 h, 3 days. The protocol: (§1) An Assay Method for Antiviral Activity 2
(§2) The HEL cells were sowed on a 48-well plate and then cultured overnight. The culture supernatant was removed, and 100 μl of 2% FBS-DMEM containing 40 Plaque-forming units of HSV-1, HSV-2, VZV, or CMV was added. A viral solution Was removed 1 hour later, and 500 μl of 2% FBS-DMEM containing 0.5% methylcellulose comprising 50, 25, 12.5, 6.3, 3.2, or 1.6 μM of the test compound was added. In this case, a substance to which 2% FBS-DMEM containing 0.5% methylcellulose not comprising any test compound had been added was designated as a control. In the case of HSV-1, HSV-2, or VZV, incubation was carried out in the presence of 5% CO2 at 37° C. for 3 days. In the case of CMV, incubation was carried out under the same conditions for 14 days. After they were immobilized on formalin and stained with bromophenol blue, the amount of plaque formed was counted, and the ratio of plaque formation of the drug-containing reaction system relative to the control was determined. The concentration of the drug with which the ratio of plaque formation reaches 50% was calculated and determined to be IC50. Concerning HSV-1, an aciclovir-resistant thymidine kinase variant and a DNA polymerase variant were examined in addition to a general aciclovir-sensitive strain.

Another data set concerns the target T1, HSV-1 protease (Human herpesvirus 1, UniProt P10210).
T1 construct: 6xHis (N); made in house; host or cells: baculovirus expression system
Briefly: Enzymatic assay for HSV-1 protease (assembly) inhibitor, fluorescence polarization. The format is biochemical. The conditions noted are these: read-out: HSV-1 Enzyme inhibition IC50. A digest of the protocol: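 Fluorescence polarization read-out: after avidin stop, cleavage of a biotinylated DTAF-labelled release-site peptide by recombinant N-His6 HSV-1 protease was compared with no-inhibitor wells. Enzyme and compound were preincubated 30 min, then substrate reacted 60 min, all at room temperature, pH 7.4 citrate buffer with TCEP.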
In general terms: Fluorescence polarisation rises when a labelled molecule tumbles more slowly, as on binding a larger partner.

The subject of the next data set is HSV2. As to the kind of experiment: Antiviral activity 2, plaque formation in HEL cells. The format is cell-based, HSV-2. The following applies: Human alphaherpesvirus 2, 72 h, 3 days. The protocol:
as §1, §2

The next data set has as its system HCMV. The description is as above. The format is cell-based, CMV. The following applies: Human betaherpesvirus 5, 336 h, 14 days. On the procedure: as §1, §2
A short description of another data set: Human plasma stability. Type of data set: in vitro ADME. On the procedure:
An Assay Method for Human Plasma Stability Human plasma was thawed, 200 μl each thereof was placed in each cell of a 96-well plate immediately thereafter, and 4 μl of solution of each test compound in 1 mM DMF was added thereto. A microplate reader for fluorescence absorption was used to assay changes in fluorescence, and half life was determined based on the changes.

The test system of data set [1] is HSV1 DNA polymerase variant. As to the kind of experiment: Antiviral activity 2, plaque formation in HEL cells. Type of data set: cell-based, HSV-1. The conditions noted are these: Human alphaherpesvirus 1, HEL, 72 h, read-out: Antiviral activity: IC50, HSV1 DNA polymerase variant. The protocol:
as §1, §2

In the next data set the test system is HSV1 Sensitive strain. Described as above. Type of data set: cell-based, HSV-1. The following applies: Human alphaherpesvirus 1, 72 h, 3 days. On the procedure: as §1, §2
The subject of data set [2] is HSV1 Thimidine kinase variant. Described as above. The format is cell-based, HSV-1. The conditions noted are these: Human alphaherpesvirus 1, HEL, 72 h, read-out: Antiviral activity: IC50, HSV1 Thimidine kinase variant. On the procedure: as §1, §2

T1 sequence (P10210 1-247): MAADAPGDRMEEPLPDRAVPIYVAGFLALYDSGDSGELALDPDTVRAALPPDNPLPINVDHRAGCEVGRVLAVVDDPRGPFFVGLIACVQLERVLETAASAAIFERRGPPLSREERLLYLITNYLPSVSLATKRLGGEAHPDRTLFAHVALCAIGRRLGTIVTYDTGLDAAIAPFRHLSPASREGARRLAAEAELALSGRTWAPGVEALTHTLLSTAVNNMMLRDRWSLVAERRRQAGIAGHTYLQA

In the data set with HSV-1, `Cc1c(NC(=O)OC(C)(C)C)ccc2nc(N[C@@H](Cc3ccccc3)C(=O)N(C)CCc3ccccn3)oc(=O)c12` [Compound No.21, (5-Methyl-2-{1-[methyl-1S-(2-pyridin-2-yl-ethyl)-carbamoyl]-2-phenyl-ethylamino}-4-oxo-4H-benzo[d][1,3]oxazin-6-yl)-carbamic Acid Tert-Butyl Ester] yielded an EC90 of 5.9 µM. For the same compound, in the data set with Vero cells, the “Cell viability (% of control)” value came out at 53.2%. For the same compound, the IC50 in the data set with VZV was 6.4 µM; at HSV-1 protease, 1.5 µM; in the data set on HSV2 it was 10.7 µM; in the data set with HCMV it was more than 5 µM; in data set [1], 6.9 µM; with HSV1 Sensitive strain it was 6.1 µM. In addition, the IC50 in [2] is 16.1 µM. The compound also showed a half-life at 19.6 μM in the data set “Human plasma stability” of 1.78 h.
In the case of `Cc1c(NC(=O)OC(C)(C)C)ccc2nc(NC3(C(=O)N(C)CCc4ccncc4)CCCCC3)oc(=O)c12` [Compound No.129, (5-Methyl-2-{1-[methyl-(2-pyridin-4-yl-ethyl)-carbamoyl]-cyclohexylamino}-4-oxo-4H-benzo[d][1,3]oxazin-6-yl)-carbamic acid tert-butyl ester], the 90% effect concentration (EC90) in the data set on HSV-1 came out at 5.8 µM. Further, the IC50 was more than 5 µM with VZV; 1.1 µM on HSV-1 protease; 10.3 µM in the data set with HSV2; more than 5 µM in the data set on HCMV; 8.7 µM in [1]; 5.8 µM with HSV1 Sensitive strain. For the same compound, the IC50 in data set [2] was 17.7 µM. The same compound came in with a half-life at 19.6 μM in the data set “Human plasma stability” of more than 15 h.
On to `Cc1c(NC(=O)OC(C)(C)C)ccc2nc(N(C)[C@@H](Cc3ccccc3)C(=O)NCc3ccccn3)oc(=O)c12` [Compound No.22, [5-Methyl-2-(methyl-{2-phenyl-1S-[(pyridin-2-ylmethyl)-carbamoyl]-ethyl}-amino)-4-oxo-4H-benzo[d][1,3]oxazin-6-yl]-carbamic Acid Tert-Butyl Ester], for which the EC90 in the data set on HSV-1 was 9 µM. Besides, the “Cell viability (% of control)” value with Vero cells came out at 66.5%. In addition, the IC50 in the data set with VZV was more than 25 µM; on HSV-1 protease it was 1.8 µM; with HSV2, 16.6 µM; with HCMV, more than 25 µM; in [1], 14.3 µM; in the data set on HSV1 Sensitive strain it was 9.5 µM. For the same compound, the half-inhibitory concentration (IC50) in data set [2] came out at 16.3 µM. The compound also showed a half-life at 19.6 μM in the data set “Human plasma stability” of 3.02 h.
